Reference: patent US11963996B2, “Method of treating knee pain” (ORTHOTROPHIX, Inc., priority 2018, dated 2024)
“Also recorded” adds a separate entry of the source.

Columns and labels:
[1] = system: cultured neonatal mouse calvaria; conditions: cited from earlier work
healthy volunteers = test: GLP toxicology studies and Phase 1 clinical study with healthy volunteers; conditions: human, in vivo
Description: In non-clinical safety and efficacy studies, TPX-100 was first tested for its bone formation activity.

defects in human molar [2] = conditions: in vivo; cited from earlier work
[3] = system: full-thickness chondral defect; conditions: in vivo; cited from earlier work
rat dental defect = conditions: in vivo; cited from earlier work
[4] = system: subjects with bilateral patello-femoral knee osteoarthritis; test: Same study: safety and tolerability; assay type: in vivo, human
Protocol: The study was divided into Part A and Part B. The Part A was designed to evaluate safety of intra-articular (I.A.) administration of TPX-100 at different dosing levels (20, 50, 100, or 200 mg per injection in sequential cohorts) in the subjects with osteoarthritis of the knees and to select a dose for Part B. Part B was to evaluate safety and efficacy of the selected dose of TPX-100.
Subjects in Part A were enrolled in sequential cohorts and randomized to receive 20, 50, 100 or 200 mg of TPX-100 in one knee (Index Knee) and identical placebo in the contralateral (Control) knee. Subjects, sites and sponsor and central MRI readers were blinded as to treatment assignment. A Safety Review Committee (SRC) evaluated safety in each dosing cohort. The SRC assessed safety and determined whether the next higher dosing regimen could be enrolled. All dosing cohorts in Part A were completed and analyzed with regard to safety prior to dose selection and initiation of Part B.
On the first dosing day, the randomized subjects were assessed by physical examinations and vital signs. Further, they completed the Knee injury and Osteoarthritis Outcome Score (KOOS), which includes the Western Ontario and McMaster Universities Osteoarthritis Index (WOMAC). The KOOS questionnaire assesses knee-specific activities of daily living, sports and recreation, knee-related quality of life, other symptoms such as stiffness, and knee pain. The KOOS has been used extensively in longitudinal studies of knee osteoarthritis. After assessments were completed, subjects received one intra-articular injection in each knee, with each injection prepared from the vial(s) marked for that knee. One knee received TPX-100, and the contralateral knee received placebo with subject, site, and sponsor blinded to treatment assignment. Subjects were monitored for adverse events during the injections and for a few hours after the injections. Vital signs were also monitored after the injections.
On the 7th, 14th, and 21st days after the first dosing, subjects received the second, third, and fourth (last) dosing of the same study materials, respectively. Safety and adverse event assessments were obtained as on the first dosing day.
(§1) Subjects returned to their respective study sites at 3, 6 and 12 months after the first dosing day for follow-up evaluations. In addition, the study sites monitored the subject's condition through telephone contact 9 months after the first dosing day. During the 3, 6, and 12 months post-treatment, subjects were evaluated on site with physical examinations, vital signs, serum chemistries, as well as completing patient-reported outcomes including the KOOS. Adverse events and concomitant medications were recorded. MRIs of both knees were obtained during the 6 and 12-month visits.

alveolar bone = test: Phase 2 study of alveolar bone formation; assay type: in vivo, human; conditions: drug vs placebo
Protocol: (§2) Based on these safety and bone and dentin formation data, TPX-100 was tested in two Phase 2 studies for alveolar bone and dentin formation activities, respectively.

[5] = system: subjects with bilateral patello-femoral knee osteoarthritis; test: Same study: MRI-based periarticular bone area and 3D bone shape (AAM, B Score); assay type: in vivo, human
Description: The 3D bone shape change can be quantified using active appearance modelling (AAM). AAM enables encoding of the 3D shape and appearance of an object using multiple anchor points (“principal components”) on the surface of the object. These principal components describe computationally the specific 3D shape of the object. The use of AAM to represent femur, tibia, and patella shapes has been described in detail by Neogi, et. al. (Neogi 2013).
The MRI images of each knee used in cartilage thickness measurement were used to measure surface area of the periarticular bone in lateral and medial femur, lateral and medial trochlear femur, lateral and medial tibia, as well as lateral and medial patella. Bone shape scores in femur, trochlear femur, tibia, and patella were also measured using the same MRI images.
(§3) All KOOS subscale scores, WOMAC Total score and subscale scores, MRI-based patello-femoral and tibiofemoral cartilage thickness, and MRI-based periarticular bone area and 3D bone shape were analyzed.
(§4) MRI images were provided to central readers cartilage and periarticular bone measures. Central readers were blind as to treatment assignment.
Bone area and 3D shape of periarticular bone were analyzed using AAM software developed by iMorphics (www.imorphics.com) specifically for assessing these parameters in the osteoarthritic knee.
(§5) Statistical analyses were carried out using a two-sided paired t-test at the 5% level of significance. The outcome variables were the differences of the change of the score of each subscale of KOOS, change of cartilage thickness, periarticular bone area, and 3D bone shape score (“B Score”) change from baseline to 6 and 12 months in the treated knee (“Index Knee”) compared with the placebo-exposed knee (“Control Knee”).
Change in periarticular bone area and 3D bone shape as measured by MRI was also compared between Index and Control Knee groups. It should be noted that there were eight subjects whose MRI images were of insufficient quality and were excluded from bone area and shape analyses. Therefore, each evaluable treatment arm consisted of 85 knees.

[6] = system: subjects with bilateral patello-femoral knee osteoarthritis; test: Same study: MRI-based patello-femoral and tibiofemoral cartilage thickness; assay type: in vivo, human
Protocol: as §1, §3, §4, §5

defects in human molar [7] = test: Phase 2 study of dentin formation in defects in human molar; assay type: in vivo; conditions: both Phase 2 studies
Protocol: as §2

[8] = Index vs Control Knees, 6 or 12 months

In the case of “TPX-100: synthetic peptide consisting of 23 amino acids, TDLQERGDNDISPFSGDGQPFKD, derived from human Matrix Extracellular Phosphoglycoprotein (MEPE)”, the “Bone formation activity in calvaria culture” value [1] is given as “thickening of cultured neonatal mouse calvaria”, the “Safety in GLP toxicology studies and Phase 1 study” value (healthy volunteers) is given as “Safety of the TPX-100 peptide was further confirmed” and the “Dentin formation in defects in human molar” value (defects in human molar [2]) is given as “reparative dentin formation”. The “Safety and tolerability in goats” value [3] was “safe and well-tolerated”, the Dentin formation (rat dental defect) was “promote dentin formation” and the Safety and tolerability ([4]; 200 mg per dose, 4 once-weekly intra-articular injections) was “safe and well tolerated”. The Dose-limiting toxicities ([4]; Part A, 20, 50, 100 and 200 mg per injection) was “no dose-limiting toxicities”, the “Severe adverse events related to treatment” value ([4]; in vivo) was “no severe adverse events that were related to TPX-100 treatment” and the “Severity of treatment-related adverse events” value ([4]; in vivo) was “mild or moderate, transient”. The Alveolar bone formation (alveolar bone) was “did not show a difference between drug vs. placebo-exposed groups”, the “Mean bone shape change rate” value ([5]; Index Knees, first 6 months) was 0.03 and the “Periarticular bone area change, lateral femur, lateral patella and medial patella” value ([5]; Index Knees, first 6 months) was “nearly zero in all regions”. For the same substance, the “3D periarticular bone shape change of femur (B score)” value ([5]; Index vs Control Knees, 6 and 12 months (p=0.005 and 0.007)) was “statistically significant decrease in shape change compared to Control Knees; also recorded: statistically significant (p<0.05) difference in favor of Index Knees”, the “Periarticular bone area increase, medial femur” value ([5]; Index vs Control Knees, 6 months) was “less periarticular bone area increase as compared to Control Knees at 6 months, with a trend toward statistical significance (p=0.08); also recorded: less pathological bone area increase as compared to Control Knee at 6 months, with a trend toward statistical significance (p=0.08)” and the “Periarticular bone area increase, lateral femur, lateral and medial patella” value ([5]; Index vs Control Knees, 12 months) was “slower increase at 12 months compared with Control Knees”. For the same substance, the “3D periarticular bone shape changes in tibia and patella” value ([5]; Index vs Control Knees, no statistically significant difference) was “slower changes in Index Knees as compared to Control Knees”, the “3D bone shape change of patella in pain frequency responder group” value ([5]; responders, through 12 months) was “remained approximately zero through 12 months; also recorded: eventually no change in the 3D bone shape in patella” and the “Overall tibiofemoral cartilage thickness change from baseline” value [6, 8] was “not measurably different between Index and Control Knees”. For the same substance, the “Patello-femoral (patella) cartilage thickness change from baseline by MRI (primary endpoint)” value [6, 8] was “no statistically significant difference between Index vs. Control Knees; also recorded: no measurable difference between Index and Control Knees”, the “Tibiofemoral cartilage thickness change in TPX-100-treated responder knees” value ([6]; knees with clinically meaningful functional improvements, baseline to 12 months) was “significantly increased” and the “Tolerability in two Phase 2 studies (alveolar bone, dentin)” value (defects in human molar [7]) was “well tolerated in both studies”.
